BindingDB's records for doi:10.1124/jpet.103.062398 (Institut De Recherches Servier, 2004)
Where “and” joins values, the source holds several entries; their conditions need not be identical. Equal entries are not always repeated.

Legend:
[1] = biological target: 5-hydroxytryptamine receptor 6 (Homo sapiens, UniProt P50406)
[2] = biological target: 5-hydroxytryptamine receptor 7 (Homo sapiens, UniProt P34969)
D(2) dopamine receptor [3] = biological target: D(2) dopamine receptor (Rattus norvegicus, UniProt P61169)
[4] = biological target: 5-hydroxytryptamine receptor 3A (Mus musculus, UniProt P23979)
[5] = biological target: Alpha-1A adrenergic receptor (Rattus norvegicus, UniProt P43140)
[6] = biological target: 5-hydroxytryptamine receptor 5A (Homo sapiens, UniProt P47898)
[7] = biological target: 5-hydroxytryptamine receptor 4 (Cavia porcellus, UniProt O70528)
D(3) dopamine receptor = D(3) dopamine receptor (Homo sapiens, UniProt P35462)
D(4) dopamine receptor = D(4) dopamine receptor (Homo sapiens, UniProt P21917)
D(2) dopamine receptor [8] = biological target: D(2) dopamine receptor (Homo sapiens, UniProt P14416)
[9] = biological target: 5-hydroxytryptamine receptor 1A (Homo sapiens, UniProt P08908)
[10] = biological target: 5-hydroxytryptamine receptor 2A (Homo sapiens, UniProt P28223)
[11] = biological target: T1, Alpha-2A adrenergic receptor [16-465] (Rattus norvegicus, UniProt P22909)
T1 construct: 16-465

[12] = biological target: 5-hydroxytryptamine receptor 1B (Homo sapiens, UniProt P28222)
[13] = biological target: 5-hydroxytryptamine receptor 1D (Homo sapiens, UniProt P28221)
[14] = biological target: 5-hydroxytryptamine receptor 2B (Homo sapiens, UniProt P41595)
[15] = biological target: Alpha-1A adrenergic receptor (Homo sapiens, UniProt P35348)
[16] = biological target: Alpha-2B adrenergic receptor (Homo sapiens, UniProt P18089)
[17] = biological target: Alpha-2C adrenergic receptor (Homo sapiens, UniProt P18825)
[18] = biological target: Alpha-1B adrenergic receptor (Homo sapiens, UniProt P35368)
[19] = biological target: Alpha-1D adrenergic receptor (Homo sapiens, UniProt P25100)
[20] = biological target: 5-hydroxytryptamine receptor 2C (Homo sapiens, UniProt P28335)
[21] = biological target: Alpha-2A adrenergic receptor (Homo sapiens, UniProt P08913)

D(2) dopamine receptor (Homo sapiens, UniProt P14416), sequence (P14416 whole entry): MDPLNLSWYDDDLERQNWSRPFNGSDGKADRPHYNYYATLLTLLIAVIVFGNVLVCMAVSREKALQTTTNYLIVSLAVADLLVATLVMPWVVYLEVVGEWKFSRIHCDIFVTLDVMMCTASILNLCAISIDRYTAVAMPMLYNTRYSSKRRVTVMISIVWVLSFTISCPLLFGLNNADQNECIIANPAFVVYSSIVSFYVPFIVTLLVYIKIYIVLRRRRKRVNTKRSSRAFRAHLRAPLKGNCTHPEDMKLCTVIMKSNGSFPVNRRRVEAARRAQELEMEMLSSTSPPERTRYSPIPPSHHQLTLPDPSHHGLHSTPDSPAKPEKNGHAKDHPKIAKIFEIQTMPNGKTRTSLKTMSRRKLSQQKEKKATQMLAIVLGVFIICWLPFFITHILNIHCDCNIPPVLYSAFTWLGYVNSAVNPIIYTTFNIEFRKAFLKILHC
D(3) dopamine receptor, sequence (P35462 as listed by the source): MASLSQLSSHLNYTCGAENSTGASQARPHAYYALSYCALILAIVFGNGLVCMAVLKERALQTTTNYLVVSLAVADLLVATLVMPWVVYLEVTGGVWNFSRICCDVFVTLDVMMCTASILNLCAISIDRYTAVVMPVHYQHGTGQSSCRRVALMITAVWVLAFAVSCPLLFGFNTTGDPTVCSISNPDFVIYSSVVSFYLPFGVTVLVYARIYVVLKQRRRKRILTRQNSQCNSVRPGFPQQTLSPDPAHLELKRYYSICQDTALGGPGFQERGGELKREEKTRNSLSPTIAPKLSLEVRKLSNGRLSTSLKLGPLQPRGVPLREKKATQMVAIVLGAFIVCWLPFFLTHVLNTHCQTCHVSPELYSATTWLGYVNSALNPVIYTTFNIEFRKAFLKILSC
5-hydroxytryptamine receptor 5A, sequence (P47898 whole entry): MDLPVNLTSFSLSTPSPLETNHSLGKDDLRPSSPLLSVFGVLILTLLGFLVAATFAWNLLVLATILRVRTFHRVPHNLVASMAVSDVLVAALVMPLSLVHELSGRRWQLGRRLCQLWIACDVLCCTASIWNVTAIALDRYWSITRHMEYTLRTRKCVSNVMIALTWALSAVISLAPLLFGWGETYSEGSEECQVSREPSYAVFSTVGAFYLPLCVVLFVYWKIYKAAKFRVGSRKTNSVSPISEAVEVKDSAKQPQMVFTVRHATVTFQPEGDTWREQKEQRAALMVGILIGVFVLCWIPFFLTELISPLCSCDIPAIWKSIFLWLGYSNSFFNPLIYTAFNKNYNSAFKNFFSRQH
5-hydroxytryptamine receptor 6, sequence (P50406 whole entry): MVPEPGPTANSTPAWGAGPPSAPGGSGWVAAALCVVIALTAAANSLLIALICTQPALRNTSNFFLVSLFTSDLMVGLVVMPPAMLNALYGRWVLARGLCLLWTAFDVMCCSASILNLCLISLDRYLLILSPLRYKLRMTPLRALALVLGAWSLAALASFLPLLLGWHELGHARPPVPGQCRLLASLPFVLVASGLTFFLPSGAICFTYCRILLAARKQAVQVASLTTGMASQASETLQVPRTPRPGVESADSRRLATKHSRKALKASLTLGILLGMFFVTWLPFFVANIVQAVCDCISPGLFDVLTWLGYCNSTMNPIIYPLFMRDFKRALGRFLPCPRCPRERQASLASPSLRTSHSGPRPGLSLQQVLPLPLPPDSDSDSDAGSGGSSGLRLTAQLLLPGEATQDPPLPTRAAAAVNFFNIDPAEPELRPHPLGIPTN
5-hydroxytryptamine receptor 3A, sequence (P23979 as listed by the source): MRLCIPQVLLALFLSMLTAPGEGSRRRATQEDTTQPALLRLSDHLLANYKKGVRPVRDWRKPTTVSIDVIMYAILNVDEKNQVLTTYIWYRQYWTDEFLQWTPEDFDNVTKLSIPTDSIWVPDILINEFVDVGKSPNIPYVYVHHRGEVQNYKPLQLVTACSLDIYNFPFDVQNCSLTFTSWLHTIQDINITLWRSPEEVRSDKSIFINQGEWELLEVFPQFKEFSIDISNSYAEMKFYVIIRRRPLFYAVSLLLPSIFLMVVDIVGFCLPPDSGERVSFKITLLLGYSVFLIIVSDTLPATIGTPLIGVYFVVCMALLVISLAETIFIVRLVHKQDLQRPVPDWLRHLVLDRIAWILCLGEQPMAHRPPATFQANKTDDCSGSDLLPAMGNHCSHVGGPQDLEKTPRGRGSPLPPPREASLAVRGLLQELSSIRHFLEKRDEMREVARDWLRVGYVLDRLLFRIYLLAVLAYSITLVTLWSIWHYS
D(2) dopamine receptor (Rattus norvegicus, UniProt P61169), sequence (P61169 whole entry): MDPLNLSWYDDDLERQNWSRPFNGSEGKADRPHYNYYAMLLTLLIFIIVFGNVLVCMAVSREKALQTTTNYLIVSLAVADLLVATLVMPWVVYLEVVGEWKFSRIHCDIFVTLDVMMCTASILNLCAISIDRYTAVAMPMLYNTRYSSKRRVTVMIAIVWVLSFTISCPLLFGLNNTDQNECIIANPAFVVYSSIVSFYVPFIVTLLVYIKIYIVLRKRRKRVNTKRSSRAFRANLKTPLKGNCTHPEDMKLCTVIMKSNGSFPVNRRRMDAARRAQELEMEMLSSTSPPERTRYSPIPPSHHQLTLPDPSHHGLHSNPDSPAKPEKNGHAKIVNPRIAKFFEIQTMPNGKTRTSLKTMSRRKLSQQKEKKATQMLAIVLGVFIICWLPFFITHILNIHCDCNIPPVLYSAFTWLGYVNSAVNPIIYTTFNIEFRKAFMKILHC
Alpha-1A adrenergic receptor (Rattus norvegicus, UniProt P43140), sequence (P43140 whole entry): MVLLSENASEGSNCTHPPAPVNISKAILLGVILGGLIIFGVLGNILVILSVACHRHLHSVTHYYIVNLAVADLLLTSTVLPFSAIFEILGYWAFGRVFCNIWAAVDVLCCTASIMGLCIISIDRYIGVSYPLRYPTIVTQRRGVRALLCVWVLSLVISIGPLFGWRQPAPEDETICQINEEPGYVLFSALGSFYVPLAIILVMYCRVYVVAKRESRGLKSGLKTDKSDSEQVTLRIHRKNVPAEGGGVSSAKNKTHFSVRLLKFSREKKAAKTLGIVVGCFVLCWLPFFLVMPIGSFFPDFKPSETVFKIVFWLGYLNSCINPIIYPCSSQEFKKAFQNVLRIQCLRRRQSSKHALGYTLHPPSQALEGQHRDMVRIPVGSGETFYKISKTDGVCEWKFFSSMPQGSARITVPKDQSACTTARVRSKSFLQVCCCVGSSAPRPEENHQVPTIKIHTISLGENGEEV
5-hydroxytryptamine receptor 7, sequence (P34969 whole entry): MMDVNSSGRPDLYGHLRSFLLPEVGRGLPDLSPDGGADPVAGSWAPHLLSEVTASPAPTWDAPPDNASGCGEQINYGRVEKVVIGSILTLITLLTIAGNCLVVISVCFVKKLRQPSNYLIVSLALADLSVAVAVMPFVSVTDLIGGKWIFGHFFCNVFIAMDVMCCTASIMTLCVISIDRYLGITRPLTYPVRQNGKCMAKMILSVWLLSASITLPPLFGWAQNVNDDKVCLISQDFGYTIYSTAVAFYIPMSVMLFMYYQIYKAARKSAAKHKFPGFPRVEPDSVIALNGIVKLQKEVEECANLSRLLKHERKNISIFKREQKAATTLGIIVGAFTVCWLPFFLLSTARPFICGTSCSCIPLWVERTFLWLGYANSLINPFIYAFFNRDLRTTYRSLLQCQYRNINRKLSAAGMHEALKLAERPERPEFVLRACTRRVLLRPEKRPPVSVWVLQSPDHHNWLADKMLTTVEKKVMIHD
5-hydroxytryptamine receptor 4, sequence (O70528 whole entry): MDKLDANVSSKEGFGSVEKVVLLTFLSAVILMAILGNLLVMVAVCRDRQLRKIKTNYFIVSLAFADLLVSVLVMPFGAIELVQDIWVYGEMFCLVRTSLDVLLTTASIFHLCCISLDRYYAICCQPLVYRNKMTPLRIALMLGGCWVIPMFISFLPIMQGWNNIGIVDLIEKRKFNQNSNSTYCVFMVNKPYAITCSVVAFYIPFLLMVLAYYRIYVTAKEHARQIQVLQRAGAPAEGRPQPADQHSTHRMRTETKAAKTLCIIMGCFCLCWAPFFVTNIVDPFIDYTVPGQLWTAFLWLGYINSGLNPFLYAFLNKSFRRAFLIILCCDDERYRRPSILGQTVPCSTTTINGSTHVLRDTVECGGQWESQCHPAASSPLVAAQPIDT
Alpha-1D adrenergic receptor, sequence (P25100 whole entry): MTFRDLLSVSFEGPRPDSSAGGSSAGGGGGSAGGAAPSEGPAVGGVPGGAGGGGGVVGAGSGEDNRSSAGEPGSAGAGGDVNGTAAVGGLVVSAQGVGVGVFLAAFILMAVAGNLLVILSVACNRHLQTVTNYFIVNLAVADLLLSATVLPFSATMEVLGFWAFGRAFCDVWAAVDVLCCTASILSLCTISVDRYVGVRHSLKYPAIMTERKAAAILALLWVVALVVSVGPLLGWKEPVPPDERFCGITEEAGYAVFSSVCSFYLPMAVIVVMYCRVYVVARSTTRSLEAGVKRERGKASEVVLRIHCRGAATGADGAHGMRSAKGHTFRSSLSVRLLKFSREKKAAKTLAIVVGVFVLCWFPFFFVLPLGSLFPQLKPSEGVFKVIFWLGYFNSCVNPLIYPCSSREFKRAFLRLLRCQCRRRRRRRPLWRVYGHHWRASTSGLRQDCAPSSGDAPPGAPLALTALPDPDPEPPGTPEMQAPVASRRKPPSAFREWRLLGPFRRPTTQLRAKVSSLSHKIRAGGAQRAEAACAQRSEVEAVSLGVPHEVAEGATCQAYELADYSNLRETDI
Alpha-1A adrenergic receptor (Homo sapiens, UniProt P35348), sequence (P35348 whole entry): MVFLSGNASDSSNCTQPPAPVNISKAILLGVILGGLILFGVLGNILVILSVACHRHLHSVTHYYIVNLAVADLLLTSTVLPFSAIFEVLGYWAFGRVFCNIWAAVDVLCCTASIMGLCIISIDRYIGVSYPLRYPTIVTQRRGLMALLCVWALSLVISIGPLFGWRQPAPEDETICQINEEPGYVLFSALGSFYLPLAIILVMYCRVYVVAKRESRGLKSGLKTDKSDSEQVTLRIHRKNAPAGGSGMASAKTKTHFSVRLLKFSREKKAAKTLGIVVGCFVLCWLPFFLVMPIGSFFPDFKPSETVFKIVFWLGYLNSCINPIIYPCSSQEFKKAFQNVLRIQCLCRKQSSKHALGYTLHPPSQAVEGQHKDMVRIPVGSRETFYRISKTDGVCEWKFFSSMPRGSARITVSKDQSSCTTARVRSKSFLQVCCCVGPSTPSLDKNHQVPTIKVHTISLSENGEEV

Structure (SMILES)	Ki [1] [nM]	Ki [2] [nM]	Ki (D(2) dopamine receptor [3]) [nM]	Ki [4] [nM]	Ki [5] [nM]	Ki [6] [nM]	Ki [7] [nM]	Ki (D(3) dopamine receptor) [nM]	Ki (D(2) dopamine receptor [8])	also measured
CCCN(CCC)CCc1cccc2c1CC(=O)N2	> 10000	1510	1150	> 10000	> 10000	> 10000	> 10000	–	–	–
CCCN1CCO[C@@H]2c3cc(C(N)=O)ccc3CC[C@H]21 [S32504 (+)]	–	–	457	–	–	–	–	8.91	513 nM and 355 nM	Ki (D(4) dopamine receptor): 5130 nM
CCCN1CCOC2c3cc(C(N)=O)ccc3CCC21 (stereo not drawn) [S32504]	> 10000	661	–	> 10000	> 10000	> 10000	> 10000	8.91	–	Ki [9]: 257 nM; Ki [10]: 5250 nM; Ki [11]: > 10000 nM; Ki [12]: > 10000 nM; Ki [13]: 263 nM; Ki [14]: 4570 nM; Ki [15]: > 10000 nM; Ki [16]: 1660 nM; Ki [17]: > 10000 nM; Ki [18]: > 10000 nM; Ki [19]: > 10000 nM; Ki [20]: > 10000 nM; Ki [21]: 8130 nM
N#Cc1ccc2c(c1)[C@H]1CN(CCCCNC(=O)c3ccc(-c4ccccc4)cc3)C[C@@H]1CO2 [S33084]	–	–	–	–	–	–	–	0.26	29.5 nM	–
